What all share (format): biochemical
For one experiment, the target named is T1, c-Met kinase (Homo sapiens, UniProt P08581).
T1 construct: recombinant N-terminal 6×His-tagged c-Met kinase domain construct expressed from baculovirus; 6xHis (N); made in house
Nature of the experiment: c-Met kinase assay (33P incorporation into Poly(Glu-Tyr)). The note with it: 500 nM test compound. As to the method:
Inhibition of c-Met kinase activity by compounds disclosed herein was quantified by measuring the amount of [^33P] incorporated into the substrate in the presence of a test compound. Briefly, a reaction mixture of 25 μL final volume containing 5 ng of c-Met kinase (obtained by purifying recombinant N-terminal 6×His-tagged c-Met kinase domain construct expressed from baculovirus), 1 μg of the substrate (Poly (Glu-Tyr, 4:1, Sigma)), kinase reaction buffer (20 mM MOPS pH 7.0, 1 mM EDTA, 5% glycerol, 0.01% Brij-35, 0.1% β-mercaptoethanol, 1 mg/mL BSA, 100 μM ATP, 0.1 μCi per well [^33P]-γ-ATP (2,500-3,000 Ci/mmol)), and a test compound (500 nM, diluted with 4% DMSO) or DMSO (as the control) was incubated at 30° C. for 30 minutes. The reaction was stopped by adding 5 μL of 3% phosphoric acid solution. The resultant reaction solution was then harvested onto a filter plate (UniFilter-96 GF/B, PerkinElmer), washed 20 times for 5 min with d.d. H2O, and followed by the addition of 30 μL of MicroScint™-20 Cocktail (PerkinElmer). The plate was then sealed and counted using a TopCount scintillation detector (PerkinElmer). The percentage of inhibition rate of the test compound was calculated by dividing the retained radioactivity of the test sample with the retained radioactivity of the control sample and shown in Table 3.

In the next experiment the target is T2, Aurora A kinase (Homo sapiens, UniProt O14965).
T2 construct: purchased Upstate
T2 sequence (O14965 1-403): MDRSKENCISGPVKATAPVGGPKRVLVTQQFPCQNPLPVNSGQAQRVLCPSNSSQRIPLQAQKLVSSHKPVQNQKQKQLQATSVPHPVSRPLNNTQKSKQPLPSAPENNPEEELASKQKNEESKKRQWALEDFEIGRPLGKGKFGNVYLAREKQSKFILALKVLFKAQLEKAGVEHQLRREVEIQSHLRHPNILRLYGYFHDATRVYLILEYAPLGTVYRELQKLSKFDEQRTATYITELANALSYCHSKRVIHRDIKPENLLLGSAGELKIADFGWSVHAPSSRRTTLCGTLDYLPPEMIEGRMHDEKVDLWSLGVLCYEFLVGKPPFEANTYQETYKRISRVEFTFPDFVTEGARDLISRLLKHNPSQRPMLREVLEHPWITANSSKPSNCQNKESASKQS
Nature of the experiment: Aurora A kinase assay ([γ-33P]ATP, CHOCKtide substrate). The note with it: for inhibition at 1 µM: 1.0 μM test compound. The method, then:
(§1) Inhibition of Aurora Kinase by the compounds disclosed herein was determined by incubating Aurora kinase, substrate, and a test compound together for a period of time followed by quantifying the resultant phosphorylated product. Specifically, in a well of a 96-well round bottom plate, 25 μL of a reaction mixture containing (1) a test compound disclosed herein (diluted from 9 μM to the desired final concentration), [γ-33P]ATP/ATP mix (10 μM), CHOCKtide (1 μg, Genesis Biotech Inc.), and Aurora-A (1 ng, purchased from Upstate); or (2) a test compound disclosed herein (diluted from 9 μM to the desired final concentration), [γ-33P]ATP/ATP mix (40 μM), CHOCKtide (1 μg, Genesis Biotech Inc.), and Aurora-B (2.5 ng, purchased from Cell signaling); was prepared and incubated at 33° C. for 30 minutes. The reaction was then stopped by adding 5 μL of 3% phosphoric acid. The resultant solution (30 μL) was later harvested by a UniFilter Plate GF/B (PerkinElmer) followed by adding 30 μL of the scintillation cocktail (MicroScint 20, PerkinElmer) to the well. The radioactivity retained on the filter membrane was measured by a luminescence counter (PerkinElmer). IC50 value is defined as the concentration of the test compound which achieves a half-maximal inhibition of the kinase activity.

The next experiment deals with T3, Aurora B kinase (Homo sapiens, UniProt Q96GD4).
T3 construct: purchased Cell signaling
T3 sequence (Q96GD4 whole entry): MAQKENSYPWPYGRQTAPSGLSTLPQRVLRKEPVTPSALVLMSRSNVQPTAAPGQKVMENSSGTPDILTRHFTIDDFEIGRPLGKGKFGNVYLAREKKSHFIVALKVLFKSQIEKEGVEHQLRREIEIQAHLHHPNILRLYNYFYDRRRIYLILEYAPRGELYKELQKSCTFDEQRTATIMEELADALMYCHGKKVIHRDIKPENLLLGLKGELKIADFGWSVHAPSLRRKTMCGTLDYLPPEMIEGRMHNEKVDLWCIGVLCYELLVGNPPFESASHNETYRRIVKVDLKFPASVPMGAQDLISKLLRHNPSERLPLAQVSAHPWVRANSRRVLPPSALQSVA
Put plainly: Aurora B kinase assay ([γ-33P]ATP, CHOCKtide substrate). The note with it: for inhibition at 1 µM: 1.0 μM test compound. As to the method:
as §1

T1 sequence (P08581 1078-1345 limits assumed): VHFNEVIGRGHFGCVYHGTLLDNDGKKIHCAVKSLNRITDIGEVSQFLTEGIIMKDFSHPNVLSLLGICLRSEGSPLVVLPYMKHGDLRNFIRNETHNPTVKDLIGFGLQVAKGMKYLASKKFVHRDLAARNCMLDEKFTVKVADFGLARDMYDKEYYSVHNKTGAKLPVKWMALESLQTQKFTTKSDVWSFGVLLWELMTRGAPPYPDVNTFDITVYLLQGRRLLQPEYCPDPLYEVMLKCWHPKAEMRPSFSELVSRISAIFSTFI

Consider `COc1ccc2c(c1)/C(=C/c1[nH]c3c(c1CCC(=O)O)C(=O)CCC3)C(=O)N2` [DCB-70167, (Z)-3-(2-((5-methoxy-2-oxoindolin-3-ylidene)methyl)-4-oxo-4,5,6,7-tetrahydro-1H-indol-3-yl)propanoic acid], for which, on c-Met kinase, the inhibition at 0.5 µM came out at 11.8%. On Aurora A kinase, the half-maximal inhibitory concentration (IC50) is 134 nM and the inhibition at 1 µM was determined as 86.4%. In addition, the inhibition at 1 µM against Aurora B kinase turned out to be 19.8%.

For `CCOC(=O)CCc1c(/C=C2\C(=O)Nc3ccc(NS(=O)(=O)c4ccccc4)cc32)[nH]c2c1C(=O)CC(C)(C)C2` [DCB-70168, (Z)-ethyl 3-(6,6-dimethyl-4-oxo-2-((2-oxo-5-(phenylsulfonamido)indolin-3-ylidene)methyl)-4,5,6,7-tetrahydro-1H-indol-3-yl)propanoate], the inhibition at 0.5 µM against c-Met kinase was determined as 12.7%. Also, the inhibition at 1 µM against Aurora A kinase came out at 53.4%; against Aurora B kinase, 30.6%.

As to `CC1(C)CC(=O)c2c([nH]c(/C=C3\C(=O)Nc4ccc(NS(=O)(=O)c5ccccc5)cc43)c2CCC(=O)O)C1` [DCB-70169, (Z)-3-(6,6-dimethyl-4-oxo-2-((2-oxo-5-(phenylsulfonamido)indolin-3-ylidene)methyl)-4,5,6,7-tetrahydro-1H-indol-3-yl)propanoic acid], the inhibition at 0.5 µM at c-Met kinase was determined as 10.8%. Further, the inhibition at 1 µM on Aurora A kinase was determined as 79.6%; at Aurora B kinase, 31%.

On to `CCCCCCC#Cc1ccc2c(c1)NC(=O)/C2=C\c1[nH]c2c(c1CCC(=O)OCC)C(=O)CCC2` [DCB-70170, (Z)-ethyl 3-(2-((6-(oct-1-ynyl)-2-oxoindolin-3-ylidene)methyl)-4-oxo-4,5,6,7-tetrahydro-1H-indol-3-yl)propanoate], for which the inhibition at 0.5 µM at c-Met kinase was determined as 13.1%. Further, the values for the inhibition at 1 µM against Aurora A kinase and on Aurora B kinase were 10.5% and 2.8%, respectively.

Regarding `CCCCCCC#Cc1ccc2c(c1)NC(=O)/C2=C\c1[nH]c2c(c1CCC(=O)O)C(=O)CCC2` [DCB-70171, (Z)-3-(2-((6-(oct-1-ynyl)-2-oxoindolin-3-ylidene)methyl)-4-oxo-4,5,6,7-tetrahydro-1H-indol-3-yl)propanoic acid], the inhibition at 0.5 µM on c-Met kinase amounted to 18.2%. The inhibition at 1 µM is 73% on Aurora A kinase and 17.4% at Aurora B kinase.

Turning to `CCCCCCC#Cc1ccc2c(c1)/C(=C/c1[nH]c3c(c1CCC(=O)OCC)C(=O)CCC3)C(=O)N2` [DCB-70172, (Z)-ethyl 3-(2-((5-(oct-1-ynyl)-2-oxoindolin-3-ylidene)methyl)-4-oxo-4,5,6,7-tetrahydro-1H-indol-3-yl)propanoate], the inhibition at 0.5 µM against c-Met kinase is 10.4%. For the same compound, the figures for the inhibition at 1 µM against Aurora A kinase and against Aurora B kinase were -3.1% and -3.2%, respectively.

In the case of `CCCCCCC#Cc1ccc2c(c1)/C(=C/c1[nH]c3c(c1CCC(=O)O)C(=O)CCC3)C(=O)N2` [DCB-70173, (Z)-3-(2-((5-(oct-1-ynyl)-2-oxoindolin-3-ylidene)methyl)-4-oxo-4,5,6,7-tetrahydro-1H-indol-3-yl)propanoic acid], the inhibition at 0.5 µM against c-Met kinase was 13.7%. The inhibition at 1 µM at Aurora A kinase is 13.6%; on Aurora B kinase it was -9.8%.

For the compound `CCOC(=O)CCc1c(/C=C2\C(=O)Nc3ccc(NC(=O)NC45CC6CC(CC(C6)C4)C5)cc32)[nH]c2c1C(=O)CCC2` [DCB-70174, Ethyl 3-(2-((Z)-(5-(3-(1-adamantanyl)ureido)-2-oxoindolin-3-ylidene)methyl)-4-oxo-4,5,6,7-tetrahydro-1H-indol-3-yl)propanoate], the inhibition at 0.5 µM against c-Met kinase worked out at 4%. Further, the inhibition at 1 µM on Aurora A kinase was 2.4%; against Aurora B kinase, -11.4%.

In the case of `CCOC(=O)CCc1c(/C=C2\C(=O)Nc3ccc(NCc4ccc(OC)cc4)cc32)[nH]c2c1C(=O)CCC2` [DCB-70175, (Z)-ethyl 3-(2-((5-(4-methoxybenzylamino)-2-oxoindolin-3-ylidene)methyl)-4-oxo-4,5,6,7-tetrahydro-1H-indol-3-yl)propanoate], the inhibition at 0.5 µM at c-Met kinase is 17.3%. The inhibition at 1 µM was 30.7% at Aurora A kinase and 8.4% on Aurora B kinase.

For `CCOC(=O)CCc1c(/C=C2\C(=O)Nc3ccc(NCc4ccc(F)cc4)cc32)[nH]c2c1C(=O)CCC2` [DCB-70176, (Z)-ethyl 3-(2-((5-(4-fluorobenzylamino)-2-oxoindolin-3-ylidene)methyl)-4-oxo-4,5,6,7-tetrahydro-1H-indol-3-yl)propanoate], the inhibition at 0.5 µM on c-Met kinase amounted to 10.1%. The inhibition at 1 µM at Aurora A kinase stood at 52.3%; at Aurora B kinase, 15.2%.

As to `CCOC(=O)CCc1c(/C=C2\C(=O)Nc3ccc(/N=C/c4ccncc4)cc32)[nH]c2c1C(=O)CCC2` [DCB-70177, ethyl 3-(4-oxo-2-((Z)-(2-oxo-5-((E)-pyridin-4-ylmethyleneamino)indolin-3-ylidene)methyl)-4,5,6,7-tetrahydro-1H-indol-3-yl)propanoate], the inhibition at 0.5 µM against c-Met kinase was 18.8%. Moreover, the inhibition at 1 µM is 81.6% on Aurora A kinase and 22.5% against Aurora B kinase.

Consider `CCOC(=O)CCc1c(/C=C2\C(=O)Nc3ccc(/N=C/c4ccc(F)c(C(F)(F)F)c4)cc32)[nH]c2c1C(=O)CCC2` [DCB-70178, ethyl 3-(2-((Z)-(5-((E)-4-fluoro-3-(trifluoromethyl)benzylideneamino)-2-oxoindolin-3-ylidene)methyl)-4-oxo-4,5,6,7-tetrahydro-1H-indol-3-yl)propanoate], for which the inhibition at 0.5 µM at c-Met kinase was 7.8%. Further, the inhibition at 1 µM against Aurora A kinase was 31.2%; at Aurora B kinase, 1.9%.

Turning to `CCOC(=O)CCc1c(/C=C2\C(=O)Nc3ccc(NC(C)c4ccccc4)cc32)[nH]c2c1C(=O)CCC2` (centres unmarked) [DCB-70179, (Z)-ethyl 3-(4-oxo-2-((2-oxo-5-(1-phenylethylamino)indolin-3-ylidene)methyl)-4,5,6,7-tetrahydro-1H-indol-3-yl)propanoate], the inhibition at 0.5 µM against c-Met kinase is 17.9%. For the same compound, the inhibition at 1 µM against Aurora A kinase is 59.9%; against Aurora B kinase it was 40.1%.

As to `CCOC(=O)CCc1c(/C=C2\C(=O)Nc3ccc(/N=C/c4ccsc4)cc32)[nH]c2c1C(=O)CCC2` [DCB-70180, ethyl 3-(4-oxo-2-((Z)-(2-oxo-5-((E)-thiophen-3-ylmethyleneamino)indolin-3-ylidene)methyl)-4,5,6,7-tetrahydro-1H-indol-3-yl)propanoate], on c-Met kinase, the inhibition at 0.5 µM stood at 5.1%. The inhibition at 1 µM at Aurora A kinase came out at 71.5%; at Aurora B kinase it was 47.4%. On Aurora B kinase, this compound registered an IC50 of 866 nM.

In the case of `CCOC(=O)CCc1c(/C=C2\C(=O)Nc3ccc(NC(=O)Nc4ccc(F)cc4F)cc32)[nH]c2c1C(=O)CCC2` [DCB-70183, (Z)-ethyl 3-(2-((5-(3-(2,4-difluorophenyl)ureido)-2-oxoindolin-3-ylidene)methyl)-4-oxo-4,5,6,7-tetrahydro-1H-indol-3-yl)propanoate], the inhibition at 0.5 µM against c-Met kinase is 1.5%. The inhibition at 1 µM against Aurora A kinase turned out to be 13.2%; against Aurora B kinase it was 13.9%.

In the case of `CCOC(=O)CCc1c(/C=C2\C(=O)Nc3ccc(NC(=O)Nc4ccc(Cl)cc4Cl)cc32)[nH]c2c1C(=O)CCC2` [DCB-70184, (Z)-ethyl 3-(2-((5-(3-(2,4-dichlorophenyl)ureido)-2-oxoindolin-3-ylidene)methyl)-4-oxo-4,5,6,7-tetrahydro-1H-indol-3-yl)propanoate], the inhibition at 0.5 µM against c-Met kinase is 8.7%. Further, the inhibition at 1 µM on Aurora A kinase came out at 6.6%; against Aurora B kinase it was 6.8%.

The inhibition is the drop in the measured response relative to a control, in per cent. Usually IC50 stands for the concentration that inhibits the measured activity by half.

The record behind these values is patent US7897602B2, “Indolinone compounds as kinase inhibitors” (Development Center for Biotechnology, priority 2009, dated 2011).
